Each compound was assayed on D. immitis microfilariae (assay: Dog heart worm microfilariae motility assay). Settings: Dirofilaria immitis, read-out: EC50 (motility inhibition).
Format: cell-based

SMILES | EC50
O=C(NN1CCOc2ccccc21)c1cnc2c(-c3cc(Cl)c(F)c(Cl)c3F)cccc2c1N1CCOCC1 [Example 5.23, 8-(3,5-dichloro-2,4-difluoro-phenyl)-N-(2,3-dihydro-1,4-benzoxazin-4-yl)-4-morpholino-quinoline-3-carboxamide] | < 0.1 µg/mL

Each compound was assayed on Caenorhabditis elegans (assay: C. elegans development assay (Ce DA)). Settings: 48 h, read-out: EC90 (motility reduction).
Protocol: Caenorhabditis elegans (Ce): C. elegans development assay (Ce DA) measures the effect of compounds on developing nematodes. Eggs of C. elegans are deposited in a 384 well plate together with food (E. coli) and the treatment formulated in DMSO. Plates are incubated at 25° C. for 48 h to allow the development of nematodes up to the L4-stage. The effect of compounds is measured as motility reduction. Efficacy is expressed in % motility reduction compared to negative controls.

SMILES | EC90
O=C(NN1CCOc2ccccc21)c1cnc2c(-c3cc(Cl)c(F)c(Cl)c3F)cccc2c1N1CCOCC1 [Example 5.23, 8-(3,5-dichloro-2,4-difluoro-phenyl)-N-(2,3-dihydro-1,4-benzoxazin-4-yl)-4-morpholino-quinoline-3-carboxamide] | < 1 µg/mL
COC(C)c1c(C(=O)NN2CCOc3ccccc32)cnc2c(-c3cc(F)cc(F)c3F)cccc12 (stereo not drawn) [Example 5.55, N-(2,3-dihydro-1,4-benzoxazin-4-yl)-4-(1-methoxyethyl)-8-(2,3,5-trifluorophenyl)quinoline-3-carboxamide] | < 1 µg/mL
CN(C)c1c(C(=O)NN2CCOc3ccccc32)cnc2c(-c3cc(Cl)c(F)c(Cl)c3F)c(F)ccc12 [Example 5.56, 8-(3,5-dichloro-2,4-difluoro-phenyl)-N-(2,3-dihydro-1,4-benzoxazin-4-yl)-4-(dimethylamino)-7-fluoro-quinoline-3-carboxamide] | < 1 µg/mL
O=C(NN1CCOc2ccccc21)c1cnc2c(-c3c(F)c(F)cc(F)c3F)cccc2c1N1CCOCC1 [Example 5.57, N-(2,3-dihydro-1,4-benzoxazin-4-yl)-4-morpholino-8-(2,3,5,6-tetrafluorophenyl)quinoline-3-carboxamide] | < 1 µg/mL
O=C(NN1CCOc2ccccc21)c1cnc2c(-c3cc(Cl)c(F)c(Cl)c3F)c(F)ccc2c1C1CC1 [Example 5.58, 4-cyclopropyl-8-(3,5-dichloro-2,4-difluoro-phenyl)-N-(2,3-dihydro-1,4-benzoxazin-4-yl)-7-fluoro-quinoline-3-carboxamide] | < 1 µg/mL
O=C(NN1CCOc2ccccc21)c1cnc2c(-c3cc(C(F)(F)F)cc(C(F)(F)F)c3)c(F)ccc2c1N1CCOCC1 [Example 5.59, 8-[3,5-bis(trifluoromethyl)phenyl]-N-(2,3-dihydro-1,4-benzoxazin-4-yl)-7-fluoro-4-morpholino-quinoline-3-carboxamide] | < 1 µg/mL
O=C(NN1CCOc2ccccc21)c1cnc2c(-c3cc(Cl)cc(F)c3F)c(F)ccc2c1N1CCOCC1 [Example 5.60, 8-(5-chloro-2,3-difluoro-phenyl)-N-(2,3-dihydro-1,4-benzoxazin-4-yl)-7-fluoro-4-morpholino-quinoline-3-carboxamide] | < 1 µg/mL
O=C(NN1CCOc2ccccc21)c1cnc2c(-c3cc(Cl)cc(C(F)(F)F)c3)c(F)ccc2c1N1CCOCC1 [Example 5.61, 8-[3-chloro-5-(trifluoromethyl)phenyl]-N-(2,3-dihydro-1,4-benzoxazin-4-yl)-7-fluoro-4-morpholino-quinoline-3-carboxamide] | < 1 µg/mL
CON(C)c1c(C(=O)NN2CCOc3ccccc32)cnc2c(-c3cc(Cl)c(F)c(Cl)c3F)c(F)ccc12 [Example 5.62, 8-(3,5-dichloro-2,4-difluoro-phenyl)-N-(2,3-dihydro-1,4-benzoxazin-4-yl)-7-fluoro-4-[methoxy(methyl)amino]quinoline-3-carboxamide] | < 1 µg/mL
O=C(NN1CCOc2ccccc21)c1cnc2c(-c3ccc(C(F)(F)F)cc3)cccc2c1N1CCOCC1 [Example 5.63, N-(2,3-dihydro-1,4-benzoxazin-4-yl)-4-morpholino-8-[4-(trifluoromethyl)phenyl]quinoline-3-carboxamide] | < 1 µg/mL

What follows are compounds tested on H. contortus larvae (assay: H. contortus Larval Development Assay (Hc LDA)). Settings: Haemonchus contortus, read-out: EC50 (motility inhibition).
Protocol: Ruminant Gastrointestinal (H. contortus Larval Development Assay (Hc LDA)):
H.c. eggs isolated from lamb fecal matter are allowed to hatch overnight. Test compounds are diluted in DMSO and added to a 96-well plate containing appropriate media. H.c. larvae are added to each well and plates are incubated for the desired time(s). Motility is assessed using an LCD camera imaging system. Percent motility inhibition values are generated relative to the average of the DMSO-only wells.

SMILES | EC50
O=C(NN1CCOc2ccccc21)c1cnc2c(-c3cc(Cl)c(F)c(Cl)c3F)cccc2c1N1CCOCC1 [Example 5.23, 8-(3,5-dichloro-2,4-difluoro-phenyl)-N-(2,3-dihydro-1,4-benzoxazin-4-yl)-4-morpholino-quinoline-3-carboxamide] | < 1 µg/mL
